# Assay results: patent US6737383B1, “Herbicidal oxadiazolidines” (priority 1999, dated 2004)
# How the values were obtained:
# bedstraw = assay: Test B pre/postemergence bedstraw; type: in vivo, Galium aparine
# Summary of the method: (§1)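 Herbicidal effect was estimated by eye on a ten-point control scale after plants spent twelve to sixteen days in a greenhouse following soil or foliar treatment. Foliar sprays targeted plants at one to four leaves; all doses were formulated in a non-phytotoxic solvent with surfactant.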
# wheat = assay: Test B pre/postemergence wheat; type: in vivo, Triticum aestivum
# Summary of the method: as §1
# giant foxtail = assay: Test B pre/postemergence giant foxtail; type: in vivo, Setaria faberii
# Summary of the method: as §1
# pigweed = assay: Test B pre/postemergence pigweed; type: in vivo, Amaranthus retroflexus
# Summary of the method: as §1
# rape = assay: Test B pre/postemergence rape; type: in vivo, Brassica napus
# Summary of the method: as §1
# purple nutsedge = assay: Test B pre/postemergence purple nutsedge; type: in vivo, Cyperus rotundus
# Summary of the method: as §1
# corn = assay: Test B pre/postemergence corn; type: in vivo, Zea mays
# Summary of the method: as §1
# velvetleaf = assay: Test B pre/postemergence velvetleaf; type: in vivo, Abutilon theophrasti
# Summary of the method: as §1
# sugar beet = assay: Test B pre/postemergence sugar beet; type: in vivo, Beta vulgaris
# Summary of the method: as §1
# soybean = assay: Test B pre/postemergence soybean; type: in vivo, Glycine max
# Summary of the method: as §1
# crabgrass = assay: Test B pre/postemergence crabgrass; type: in vivo, Digitaria sanguinalis
# Summary of the method: as §1
# blackgrass = assay: Test B pre/postemergence blackgrass; type: in vivo, Alopecurus myosuroides
# Summary of the method: as §1
# morningglory = assay: Test B pre/postemergence morningglory; type: in vivo, Ipomoea hederacea
# Summary of the method: as §1
# cocklebur = assay: Test B pre/postemergence cocklebur; type: in vivo, Xanthium strumarium
# Summary of the method: as §1
# surinam grass = assay: Test B pre/postemergence surinam grass; type: in vivo, Brachiaria decumbens; conditions: Postemergence
# Summary of the method: as §1
# wild oat = assay: Test B pre/postemergence wild oat; type: in vivo, Avena fatua
# Summary of the method: as §1
# [1] = Postemergence, Rate 62 g/ha, scale 0 to 10, 0 is no effect, 10 is complete control
# [2] = Postemergence, Rate 125 g/ha, scale of 0 to 10 where 0 is no effect and 10 is complete control
# [3] = Preemergence, Rate 125 g/ha, scale of 0 to 10 where 0 is no effect and 10 is complete control
# [4] = Preemergence, Rate 250 g/ha, scale 0 (no effect) to 10 (complete control)
# [5] = Rate 500 g/ha, Postemergence, scale 0 to 10, 0 is no effect, 10 is complete control
# [6] = Rate 500 g/ha, Preemergence, scale 0 to 10 (0 no effect, 10 complete control)
# [7] = Rate 62 g/ha, Preemergence, scale 0 to 10
# [8] = Rate 250 g/ha, Postemergence, scale 0 to 10, 0 is no effect, 10 is complete control
smiles,measurement,setting,value
CCC(C)n1c(=O)on(C(=O)N(c2ccc(F)cc2)C(C)C)c1=O (stereo not shown) [Compound 751],"Plant response rating, Bedstraw",bedstraw; [1],0
same,Bedstraw plant response rating,bedstraw; [2],5
same,"Plant response rating, Bedstraw",bedstraw; [3],2
same,Bedstraw plant response rating,bedstraw; [4],9
same,Bedstraw plant response rating,bedstraw; [5],7
same,Bedstraw plant response rating,bedstraw; [6],10
same,"Plant response rating, Wheat",wheat; [1],0
same,Wheat plant response rating,wheat; [2],0
same,"Plant response rating, Wheat",wheat; [3],4
same,Wheat plant response rating,wheat; [4],5
same,Wheat plant response rating,wheat; [7],0
same,Wheat plant response rating,wheat; [8],5
same,Wheat plant response rating,wheat; [5],3
same,Wheat plant response rating,wheat; [6],10
same,"Plant response rating, Giant foxtail",giant foxtail; [1],8
same,Giant foxtail plant response rating,giant foxtail; [2],9
same,"Plant response rating, Giant foxtail",giant foxtail; [3],10
same,Giant foxtail plant response rating,giant foxtail; [4],10
same,Giant foxtail plant response rating,giant foxtail; [7],10
same,Giant foxtail plant response rating,giant foxtail; [8],9
same,Giant foxtail plant response rating,giant foxtail; [5],9
same,Giant foxtail plant response rating,giant foxtail; [6],10
same,Redroot pigweed plant response rating,pigweed; [2],6
same,"Plant response rating, Redroot pigweed",pigweed; [3],10
same,Redroot pigweed plant response rating,pigweed; [4],10
same,Redroot pigweed plant response rating,pigweed; [7],10
same,Redroot pigweed plant response rating,pigweed; [8],9
same,Redroot pigweed plant response rating,pigweed; [5],9
same,Redroot pigweed plant response rating,pigweed; [6],10
same,"Plant response rating, Rape",rape; [1],2
same,Rape plant response rating,rape; [2],3
same,"Plant response rating, Rape",rape; [3],6
same,Rape plant response rating,rape; [4],7
same,Rape plant response rating,rape; [7],4
same,Rape plant response rating,rape; [8],5
same,Rape plant response rating,rape; [5],5
same,Rape plant response rating,rape; [6],9
same,"Plant response rating, Nutsedge",purple nutsedge; [1],0
same,Nutsedge plant response rating,purple nutsedge; [2],0
same,"Plant response rating, Nutsedge",purple nutsedge; [3],0
same,Nutsedge plant response rating,purple nutsedge; [4],0
same,Nutsedge plant response rating,purple nutsedge; [7],0
same,Nutsedge plant response rating,purple nutsedge; [8],0
same,Nutsedge plant response rating,purple nutsedge; [5],10
same,Nutsedge plant response rating,purple nutsedge; [6],0
same,"Plant response rating, Corn",corn; [1],0
same,Corn plant response rating,corn; [2],0
same,"Plant response rating, Corn",corn; [3],4
same,Corn plant response rating,corn; [4],8
same,Corn plant response rating,corn; [7],0
same,Corn plant response rating,corn; [8],0
same,Corn plant response rating,corn; [5],2
same,Corn plant response rating,corn; [6],9
same,"Plant response rating, Velvetleaf",velvetleaf; [1],0
same,Velvetleaf plant response rating,velvetleaf; [2],2
same,"Plant response rating, Velvetleaf",velvetleaf; [3],8
same,Velvetleaf plant response rating,velvetleaf; [4],8
same,Velvetleaf plant response rating,velvetleaf; [7],7
same,Velvetleaf plant response rating,velvetleaf; [8],2
same,Velvetleaf plant response rating,velvetleaf; [5],3
same,Velvetleaf plant response rating,velvetleaf; [6],8
same,"Plant response rating, Sugarbeets",sugar beet; [1],3
same,Sugarbeets plant response rating,sugar beet; [2],3
same,"Plant response rating, Sugarbeets",sugar beet; [3],2
same,Sugarbeets plant response rating,sugar beet; [4],5
same,Sugarbeets plant response rating,sugar beet; [7],2
same,Sugarbeets plant response rating,sugar beet; [8],3
same,Sugarbeets plant response rating,sugar beet; [5],3
same,Sugarbeets plant response rating,sugar beet; [6],7
same,"Plant response rating, Soybean",soybean; [1],2
same,Soybean plant response rating,soybean; [2],3
same,"Plant response rating, Soybean",soybean; [3],0
same,Soybean plant response rating,soybean; [4],7
same,Soybean plant response rating,soybean; [7],0
same,Soybean plant response rating,soybean; [8],7
same,Soybean plant response rating,soybean; [5],7
same,Soybean plant response rating,soybean; [6],9
same,"Plant response rating, Crabgrass",crabgrass; [1],7
same,Crabgrass plant response rating,crabgrass; [2],8
same,"Plant response rating, Crabgrass",crabgrass; [3],10
same,Crabgrass plant response rating,crabgrass; [4],10
same,Crabgrass plant response rating,crabgrass; [7],10
same,Crabgrass plant response rating,crabgrass; [8],9
same,Crabgrass plant response rating,crabgrass; [5],9
same,Crabgrass plant response rating,crabgrass; [6],10
same,"Plant response rating, Blackgrass",blackgrass; [1],6
same,Blackgrass plant response rating,blackgrass; [2],6
same,"Plant response rating, Blackgrass",blackgrass; [3],10
same,Blackgrass plant response rating,blackgrass; [4],10
same,Blackgrass plant response rating,blackgrass; [7],9
same,Blackgrass plant response rating,blackgrass; [8],6
same,Blackgrass plant response rating,blackgrass; [5],7
same,Blackgrass plant response rating,blackgrass; [6],10
same,"Plant response rating, Morningglory",morningglory; [1],8
same,Morningglory plant response rating,morningglory; [2],8
same,"Plant response rating, Morningglory",morningglory; [3],5
same,Morningglory plant response rating,morningglory; [4],5
same,Morningglory plant response rating,morningglory; [7],0
same,Morningglory plant response rating,morningglory; [8],8
same,Morningglory plant response rating,morningglory; [5],9
same,Morningglory plant response rating,morningglory; [6],5
same,"Plant response rating, Cocklebur",cocklebur; [1],0
same,Cocklebur plant response rating,cocklebur; [2],2
same,"Plant response rating, Cocklebur",cocklebur; [3],0
same,Cocklebur plant response rating,cocklebur; [4],0
same,Cocklebur plant response rating,cocklebur; [7],0
same,Cocklebur plant response rating,cocklebur; [8],2
same,Cocklebur plant response rating,cocklebur; [5],2
same,Cocklebur plant response rating,cocklebur; [6],0
same,"Plant response rating, B. signalgrass","surinam grass; Rate 62 g/ha, scale 0 to 10, 0 is no effect, 10 is complete control",3
same,B. signalgrass plant response rating,"surinam grass; Rate 125 g/ha, scale of 0 to 10 where 0 is no effect and 10 is complete control",3
same,B. signalgrass plant response rating,"surinam grass; Rate 250 g/ha, scale 0 to 10, 0 is no effect, 10 is complete control",6
same,B. signalgrass plant response rating,"surinam grass; Rate 500 g/ha, scale 0 to 10, 0 is no effect, 10 is complete control",7
same,"Plant response rating, Wild oats",wild oat; [1],0
same,Wild oats plant response rating,wild oat; [2],0
same,"Plant response rating, Wild oats",wild oat; [3],8
same,Wild oats plant response rating,wild oat; [4],10
same,Wild oats plant response rating,wild oat; [7],3
same,Wild oats plant response rating,wild oat; [8],3
same,Wild oats plant response rating,wild oat; [5],5
same,Wild oats plant response rating,wild oat; [6],10
